Measured values from PubChem BioAssay (NCI).
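Cells were grown in 96-well plates and exposed to each compound for 48 hours at five concentrations; endpoints were interpolated linearly between bracketing concentrations, or set to the highest concentration if not reached. At the GI50, growth is halved. TGI is the concentration that stops growth completely.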

Assays:
Assay in all cases: NCI-60 cell line screen, 48 h
786-0 renal = system: 786-0 renal
A498 renal = system: A498 renal
A549 NSCLC = system: A549 NSCLC
ACHN renal = system: ACHN renal
BT-549 breast = system: BT-549 breast
CAKI-1 renal = system: CAKI-1 renal
CCRF-CEM leukemia = system: CCRF-CEM leukemia
COLO 205 colon = system: COLO 205 colon
DU-145 prostate = system: DU-145 prostate
EKVX NSCLC = system: EKVX NSCLC
HCC-2998 colon = system: HCC-2998 colon
HCT-116 colon = system: HCT-116 colon
HCT-15 colon = system: HCT-15 colon
HL-60(TB) leukemia = system: HL-60(TB) leukemia
HOP-62 NSCLC = system: HOP-62 NSCLC
HS 578T breast = system: HS 578T breast
HT29 colon = system: HT29 colon
IGROV1 ovarian = system: IGROV1 ovarian
K-562 leukemia = system: K-562 leukemia
KM12 colon = system: KM12 colon
LOX IMVI melanoma = system: LOX IMVI melanoma
M14 melanoma = system: M14 melanoma
MALME-3M melanoma = system: MALME-3M melanoma
MCF7 breast = system: MCF7 breast
MDA-MB-231 breast = system: MDA-MB-231 breast
MDA-MB-435 = system: MDA-MB-435
MOLT-4 leukemia = system: MOLT-4 leukemia
NCI-H226 lung = system: NCI-H226 lung
NCI-H23 lung = system: NCI-H23 lung
NCI-H460 lung = system: NCI-H460 lung
NCI-H522 lung = system: NCI-H522 lung
NCI/ADR-RES ovarian = system: NCI/ADR-RES ovarian
OVCAR-3 ovarian = system: OVCAR-3 ovarian
OVCAR-4 ovarian = system: OVCAR-4 ovarian
OVCAR-5 ovarian = system: OVCAR-5 ovarian
OVCAR-8 ovarian = system: OVCAR-8 ovarian
RPMI-8226 leukemia = system: RPMI-8226 leukemia
SF-268 CNS = system: SF-268 CNS
SF-295 CNS = system: SF-295 CNS
SF-539 CNS = system: SF-539 CNS
SK-MEL-2 melanoma = system: SK-MEL-2 melanoma
SK-MEL-28 melanoma = system: SK-MEL-28 melanoma
SK-MEL-5 melanoma = system: SK-MEL-5 melanoma
SK-OV-3 ovarian = system: SK-OV-3 ovarian
SN12C renal = system: SN12C renal
SNB-19 CNS = system: SNB-19 CNS
SNB-75 CNS = system: SNB-75 CNS
SR leukemia = system: SR leukemia
SW-620 colon = system: SW-620 colon
T-47D breast = system: T-47D breast
TK-10 renal = system: TK-10 renal
U251 CNS = system: U251 CNS
UACC-257 melanoma = system: UACC-257 melanoma
UACC-62 melanoma = system: UACC-62 melanoma
UO-31 renal = system: UO-31 renal
HOP-92 NSCLC = system: HOP-92 NSCLC
PC-3 prostate = system: PC-3 prostate
RXF 393 renal = system: RXF 393 renal

c1ccc(-c2cnc3nc4ccccc4nc3n2)cc1
TGI (786-0 renal): > 100 µM
TGI (A498 renal): 27.1 µM
TGI (A549 NSCLC): 23.6 µM
TGI (ACHN renal): 15.4 µM
TGI (BT-549 breast): 29 µM
TGI (CAKI-1 renal): 3.53 µM
TGI (CCRF-CEM leukemia): 10.2 µM
TGI (COLO 205 colon): 17.6 µM
TGI (DU-145 prostate): 19.6 µM
TGI (EKVX NSCLC): 16.5 µM
TGI (HCC-2998 colon): 43.3 µM
TGI (HCT-116 colon): 21.9 µM
TGI (HCT-15 colon): > 100 µM
TGI (HL-60(TB) leukemia): > 100 µM
TGI (HOP-62 NSCLC): 65.3 µM
TGI (HS 578T breast): 33.3 µM
TGI (HT29 colon): 35.5 µM
TGI (IGROV1 ovarian): 17.5 µM
TGI (K-562 leukemia): > 100 µM
TGI (KM12 colon): 21.8 µM
TGI (LOX IMVI melanoma): 20.1 µM
TGI (M14 melanoma): 25.6 µM
TGI (MALME-3M melanoma): 15.8 µM
TGI (MCF7 breast): 4.71 µM
TGI (MDA-MB-231 breast): 17.4 µM
TGI (MDA-MB-435): 3.22 µM
TGI (MOLT-4 leukemia): 43.1 µM
TGI (NCI-H226 lung): 19.7 µM
TGI (NCI-H23 lung): 22 µM
TGI (NCI-H460 lung): 13.3 µM
TGI (NCI-H522 lung): 19 µM
TGI (NCI/ADR-RES ovarian): 39 µM
TGI (OVCAR-3 ovarian): 5.63 µM
TGI (OVCAR-4 ovarian): 19.5 µM
TGI (OVCAR-5 ovarian): 83.1 µM
TGI (OVCAR-8 ovarian): 6.8 µM
TGI (RPMI-8226 leukemia): 23.9 µM
TGI (SF-268 CNS): 17.8 µM
TGI (SF-295 CNS): 25.3 µM
TGI (SF-539 CNS): 15.8 µM
TGI (SK-MEL-2 melanoma): 15.1 µM
TGI (SK-MEL-28 melanoma): 32.8 µM
TGI (SK-MEL-5 melanoma): 12.3 µM
TGI (SK-OV-3 ovarian): 9.12 µM
TGI (SN12C renal): 31.5 µM
TGI (SNB-19 CNS): 32.7 µM
TGI (SNB-75 CNS): 22.8 µM
TGI (SR leukemia): 4.81 µM
TGI (SW-620 colon): 18 µM
TGI (T-47D breast): 47 µM
TGI (TK-10 renal): 20.8 µM
TGI (U251 CNS): 22.4 µM
TGI (UACC-257 melanoma): 8.62 µM
TGI (UACC-62 melanoma): 15.4 µM
TGI (UO-31 renal): 19.5 µM

COc1cc(CNC(=O)CCSc2nc3ccccc3c(=O)n2Cc2cc(OC)c(OC)c(OC)c2)cc(OC)c1OC
GI50 (786-0 renal): 5.1 µM
TGI (786-0 renal): 29 µM
GI50 (A498 renal): 4.05 µM
TGI (A498 renal): 21.1 µM
GI50 (A549 NSCLC): 6.33 µM
TGI (A549 NSCLC): > 100 µM
GI50 (ACHN renal): 8.09 µM
TGI (ACHN renal): > 100 µM
GI50 (BT-549 breast): 4.9 µM
TGI (BT-549 breast): 44.1 µM
GI50 (CAKI-1 renal): 5.46 µM
TGI (CAKI-1 renal): > 100 µM
GI50 (CCRF-CEM leukemia): 4.91 µM
TGI (CCRF-CEM leukemia): > 100 µM
GI50 (COLO 205 colon): 5.32 µM
TGI (COLO 205 colon): 23.2 µM
GI50 (DU-145 prostate): 7.27 µM
TGI (DU-145 prostate): > 100 µM
GI50 (HCC-2998 colon): 13 µM
TGI (HCC-2998 colon): 94.6 µM
GI50 (HCT-116 colon): 3.76 µM
TGI (HCT-116 colon): 13.3 µM
GI50 (HCT-15 colon): 2.47 µM
TGI (HCT-15 colon): > 100 µM
GI50 (HL-60(TB) leukemia): 3.57 µM
TGI (HL-60(TB) leukemia): > 100 µM
GI50 (HOP-62 NSCLC): 4.36 µM
TGI (HOP-62 NSCLC): 28.7 µM
GI50 (HOP-92 NSCLC): 5.7 µM
TGI (HOP-92 NSCLC): 23.9 µM
GI50 (HS 578T breast): 5.24 µM
TGI (HS 578T breast): > 100 µM
GI50 (IGROV1 ovarian): 13.2 µM
TGI (IGROV1 ovarian): > 100 µM
GI50 (KM12 colon): 3.98 µM
TGI (KM12 colon): > 100 µM
GI50 (LOX IMVI melanoma): 7.05 µM
TGI (LOX IMVI melanoma): > 100 µM
GI50 (M14 melanoma): 2.23 µM
TGI (M14 melanoma): 5.8 µM
GI50 (MCF7 breast): 3.46 µM
TGI (MCF7 breast): > 100 µM
GI50 (MDA-MB-231 breast): 5.36 µM
TGI (MDA-MB-231 breast): 48.3 µM
GI50 (MOLT-4 leukemia): 7.38 µM
TGI (MOLT-4 leukemia): > 100 µM
GI50 (NCI-H226 lung): 14.6 µM
TGI (NCI-H226 lung): > 100 µM
GI50 (NCI-H23 lung): 6.87 µM
TGI (NCI-H23 lung): > 100 µM
GI50 (NCI-H460 lung): 4.19 µM
TGI (NCI-H460 lung): 27.5 µM
GI50 (NCI-H522 lung): 6.55 µM
TGI (NCI-H522 lung): 27.5 µM
GI50 (NCI/ADR-RES ovarian): 3.59 µM
TGI (NCI/ADR-RES ovarian): 30.9 µM
GI50 (OVCAR-3 ovarian): 4.23 µM
TGI (OVCAR-3 ovarian): 18.2 µM
GI50 (OVCAR-4 ovarian): 10.8 µM
TGI (OVCAR-4 ovarian): 77.1 µM
GI50 (OVCAR-5 ovarian): 9.38 µM
TGI (OVCAR-5 ovarian): > 100 µM
GI50 (OVCAR-8 ovarian): 10 µM
TGI (OVCAR-8 ovarian): 50.7 µM
GI50 (PC-3 prostate): 10.8 µM
TGI (PC-3 prostate): > 100 µM
GI50 (RPMI-8226 leukemia): 4 µM
TGI (RPMI-8226 leukemia): 67.2 µM
GI50 (RXF 393 renal): 5.31 µM
TGI (RXF 393 renal): 26 µM
GI50 (SF-268 CNS): 7.13 µM
TGI (SF-268 CNS): > 100 µM
GI50 (SF-295 CNS): 4.36 µM
TGI (SF-295 CNS): > 100 µM
GI50 (SF-539 CNS): 2.86 µM
TGI (SF-539 CNS): 10.7 µM
GI50 (SK-MEL-2 melanoma): 2.82 µM
TGI (SK-MEL-2 melanoma): 8.14 µM
GI50 (SK-MEL-28 melanoma): 6.69 µM
TGI (SK-MEL-28 melanoma): > 100 µM
GI50 (SK-MEL-5 melanoma): 2.85 µM
TGI (SK-MEL-5 melanoma): 13.7 µM
GI50 (SK-OV-3 ovarian): 5.34 µM
TGI (SK-OV-3 ovarian): 18.6 µM
GI50 (SN12C renal): 8.1 µM
TGI (SN12C renal): > 100 µM
GI50 (SNB-19 CNS): 6 µM
TGI (SNB-19 CNS): > 100 µM
GI50 (SNB-75 CNS): 2.06 µM
TGI (SNB-75 CNS): 12.9 µM
GI50 (SR leukemia): 3.01 µM
TGI (SR leukemia): > 100 µM
GI50 (SW-620 colon): 4.31 µM
TGI (SW-620 colon): > 100 µM
GI50 (T-47D breast): 5.52 µM
TGI (T-47D breast): 34 µM
GI50 (TK-10 renal): 11 µM
TGI (TK-10 renal): 44.4 µM
GI50 (U251 CNS): 5.34 µM
TGI (U251 CNS): 59.5 µM
GI50 (UACC-257 melanoma): 16.3 µM
TGI (UACC-257 melanoma): > 100 µM
GI50 (UACC-62 melanoma): 2.92 µM
TGI (UACC-62 melanoma): 20.6 µM
GI50 (UO-31 renal): 5.9 µM
TGI (UO-31 renal): > 100 µM
